Source: patent US10458911B2, “Method for searching candidate material for anti-cancer drug using localized surface plasmon resonance” (KOREA UNIVERSITY RESEARCH AND BUSINESS FOUNDATION, priority 2015, dated 2019)

What was measured:
[1] = molecular target: T1, STAT3 protein extracted from MCF-7 cells (Homo sapiens, UniProt P40763); experiment: Single nanoplasmonic biosensor (LSPR shift), dimerization step with STAT3 extracted from MCF-7 cells treated with STA-21; type: cell-based
T1 construct: Phosphorylated STAT3 protein (10 μg mL^−1) extracted from Michigan Cancer Foundation-7 (MCF-7) cells was used; endogenous in cells; host or cells: MCF-7
Experimental: Subsequently, the phosphorylation and the dimerization of STAT3 were conducted as follows. In the first step, after ˜50 nm AuNPs were immobilized onto a coverslip slide, all unbound AuNPs and contaminants were removed, and the surface of the amino-modified AuNPs was cleaned by injecting nuclease-free water for 1 h. In the second step, after STAT3 protein was conjugated to the AuNPs, 300 μL, of the STAT3 solution ([…] in 50 mM Tris-HCl buffer, pH 7.4, containing 150 mM NaCl and 25% glycerol) containing STAT3 protein (10 μg mL^−1) was injected into the immobilized AuNPs and incubated overnight. […]
(§1) The changes in the LSPR spectra of the single amino-modified AuNPs in response to STAT3 protein conjugation, STAT3 phosphorylation, dimerization or inhibition of STAT3 dimerization were recorded. […] The wavelength shift (Δλmax) was calculated using the following formula: λmax (after reaction)−λmax (before reaction).
The MCF-7 cells, human breast tumor cell lines, were cultured in Dulbecco's modified Eagle's medium (DMEM, Thermo Scientific, USA) containing 10% (v/v) fetal bovine serum (FBS, Thermo Scientific, USA) and 3% penicillin/streptomycin (Thermo Scientific, USA) at 37° C. in a humidified atmosphere containing 5% CO2. The inocula of cells were determined using a hemacytometer with a vital dye, trypan blue. […]

STAT3 protein [2] = molecular target: T2, STAT3 protein (Homo sapiens, UniProt P40763); experiment: Native polyacrylamide gel electrophoresis of STAT3 dimerization and its inhibition; type: biochemical; settings: lane 4, with STA-21; 167 kDa dimer without inhibitor (lane 3); FIG. 5A
From the text: Analysis of STAT3 dimerization and inhibition of STAT3 dimerization was confirmed by native polyacrylamide gel electrophoresis on 6% native gels using a standard protocol (Y. Jv, B. Li and R. Cao, Chem. Commun., 2010, 46, 80178019). The samples which formed the dimerization and inhibited the dimerization were loaded into the 6% native gel running at a voltage of 10 V cm^−1.

STAT3 protein [3] = molecular target: T2, STAT3 protein; experiment: Single nanoplasmonic biosensor (LSPR shift), inhibition of STAT3 dimerization with recombinant STAT3; type: biochemical; design: purchased Sigma Aldrich (Korea)
Experimental: Individual amino-modified AuNPs, ˜50 nm AuNPs, were immobilized onto a glutaraldehyde coated coverslip slide (22×40×0.1 mm) by dropping 10 μL of the dilute amino-modified AuNP solution (FIG. 2). The glass slide was mounted to an RC-30HV closed-bath imaging chamber (Warner Instruments, USA) to visualize the AuNPs after the addition of adsorbates and reactants. The imaging chamber (Warner Instruments, USA) was subsequently inserted onto the holder of the darkfield microscope (Eclipse TE2000-U, Nikon, Japan), and the fluidic flow was set at 100 μL min^−1 by connection to a syringe pump (Harvard Apparatus).
Subsequently, the phosphorylation and the dimerization of STAT3 were conducted as follows. In the first step, after ˜50 nm AuNPs were immobilized onto a coverslip slide, all unbound AuNPs and contaminants were removed, and the surface of the amino-modified AuNPs was cleaned by injecting nuclease-free water for 1 h. […]
as §1

T2 sequence (P40763 whole entry): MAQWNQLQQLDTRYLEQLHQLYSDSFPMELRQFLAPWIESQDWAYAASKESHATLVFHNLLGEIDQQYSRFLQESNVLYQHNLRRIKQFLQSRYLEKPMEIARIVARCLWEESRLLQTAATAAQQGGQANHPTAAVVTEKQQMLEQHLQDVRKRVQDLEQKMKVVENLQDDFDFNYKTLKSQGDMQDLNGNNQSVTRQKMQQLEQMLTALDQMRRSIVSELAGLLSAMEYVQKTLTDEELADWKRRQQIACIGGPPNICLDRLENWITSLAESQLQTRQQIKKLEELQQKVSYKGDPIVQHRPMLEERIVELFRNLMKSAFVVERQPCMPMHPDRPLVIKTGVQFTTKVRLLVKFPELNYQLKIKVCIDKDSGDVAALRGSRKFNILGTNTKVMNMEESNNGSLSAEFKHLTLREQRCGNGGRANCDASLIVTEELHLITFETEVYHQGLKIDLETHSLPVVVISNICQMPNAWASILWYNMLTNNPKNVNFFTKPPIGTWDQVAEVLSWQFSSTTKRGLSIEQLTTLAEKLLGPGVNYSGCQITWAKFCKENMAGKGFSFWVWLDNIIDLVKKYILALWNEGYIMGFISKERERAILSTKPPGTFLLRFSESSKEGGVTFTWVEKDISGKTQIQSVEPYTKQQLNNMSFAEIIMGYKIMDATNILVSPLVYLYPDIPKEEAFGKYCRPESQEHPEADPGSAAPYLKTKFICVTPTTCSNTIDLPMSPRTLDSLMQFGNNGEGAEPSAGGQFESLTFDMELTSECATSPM
T1 sequence (P40763 2-770 limits assumed): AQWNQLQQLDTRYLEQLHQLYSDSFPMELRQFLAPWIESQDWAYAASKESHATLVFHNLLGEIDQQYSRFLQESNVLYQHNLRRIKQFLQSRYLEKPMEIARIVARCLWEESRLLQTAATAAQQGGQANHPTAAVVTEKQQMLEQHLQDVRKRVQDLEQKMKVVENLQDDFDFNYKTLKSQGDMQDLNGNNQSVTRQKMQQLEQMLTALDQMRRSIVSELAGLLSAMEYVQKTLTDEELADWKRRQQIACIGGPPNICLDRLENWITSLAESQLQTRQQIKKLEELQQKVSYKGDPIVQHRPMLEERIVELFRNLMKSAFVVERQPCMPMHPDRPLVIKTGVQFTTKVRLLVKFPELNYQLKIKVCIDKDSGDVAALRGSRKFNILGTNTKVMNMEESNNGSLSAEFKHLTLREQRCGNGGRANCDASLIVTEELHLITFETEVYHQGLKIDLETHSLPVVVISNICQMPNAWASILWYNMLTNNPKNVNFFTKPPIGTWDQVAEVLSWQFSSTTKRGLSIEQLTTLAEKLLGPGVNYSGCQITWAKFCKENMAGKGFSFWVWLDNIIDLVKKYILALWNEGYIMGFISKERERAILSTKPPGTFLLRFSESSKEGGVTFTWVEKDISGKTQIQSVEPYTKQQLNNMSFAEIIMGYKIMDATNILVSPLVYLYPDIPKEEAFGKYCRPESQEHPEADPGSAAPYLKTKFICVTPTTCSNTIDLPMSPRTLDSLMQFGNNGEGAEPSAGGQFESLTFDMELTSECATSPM

Question: Which results are given for `C[C@@H]1CC(=O)c2c(ccc3c2C(=O)c2cccc(O)c2C3=O)C1` [STA-21]?
Answer: STAT3 dimer formation ([1]; STAT3 from MCF-7 cells treated with STA-21): did not form a STAT3 dimer; red shift of the LSPR λmax for the dimerization step in the presence of inhibitor ([1]; STAT3 from MCF-7 cells treated with STA-21 for 24 h, 10.00 nm in the absence, FIG. 4C): 3.34 nm; STAT3 species observed by Native PAGE (STAT3 protein [2]): 90 kDa monomer; red shift of the LSPR λmax in the dimerization step in the presence of inhibitor (STAT3 protein [3]; STA-21 1 μM, recombinant STAT3 protein, 9.00 nm in the absence, FIG. 4C): 2.65 nm; STAT3 dimerization inhibited (STAT3 protein [3]; STA-21 at 10^3 nM, recombinant STAT3): 100%
